Measured values published in patent US7241797B2, “Method of increasing milk production” (University of Cincinnati, priority 2002, dated 2007).

Columns and labels:
[1] = tested on: WAP gene expression in cultured mammospheres; test: Milk protein gene expression (RT-PCR) in mammosphere cultures treated with serotonergic agents; format: cell-based, mouse; conditions: cells cultured in 1% fetal serum, WAP constitutively expressed at a low level
Experimental: Primary mouse mammary cultures were treated with PRL, methysergide (Methy.), or 5-HT as noted (+). RT-PCR products for various genes expressed in the mammary gland are shown by the labels at the left margin.
We tested whether 5-HT might have an autocrine/paracrine effect first by examining the expression of various genes in mammosphere cultures (FIG. 4), and then by morphometry (FIG. 5). Using a broad-spectrum 5-HT receptor antagonist methysergide, in combination with PRL, we observed that the expression levels of several mammary gland genes, including whey acidic protein (WAP), glycosylated cell adhesion molecule-1 (GlyCAM-1) and […]. The effects of both 5-HT and methysergide (agonist and antagonist) were tested using cells cultured in 1% fetal serum, wherein the WAP gene is constitutively expressed at a low level. Under these conditions 5-HT suppressed WAP, and methysergide induced WAP.
Primary mouse mammary epithelium was prepared from nulliparous mice by enzymatic digestion and differential trypsinization, modifying the method of Imagawa (Pedchenko, V. K. & Imagawa, W. T. Mammogenic hormones differentially modulate keratinocyte growth factor (KGF)-induced proliferation and KGF receptor expression in cultured mouse mammary gland epithelium. Endocrinology 139,2519-2526 (1998)). […]

cultured mammospheres = test: Morphology and morphometry of cultured mammospheres treated with serotonergic agents; format: cell-based, mouse; conditions: for Mammosphere morphology (qualitative): 1 μg·ml−1, replenished each day, 7-day incubation
Experimental: Qualitative comparison of typical mammospheres in cultures treated with (a) control; (b) 5-HT; (c) methysergide; (d) PCPA. Each of the agents was added to the medium at a concentration of 1 μg·ml^−1 and replenished each day during a 7-day incubation. (e) histogram depicting the median areas (in arbitrary units) of mammospheres sorted by size (n=350, 2 replicate experiments) of control- and methysergide-treated cultures.
In addition to the effects on gene expression shown above, perturbing 5-HT signaling caused morphological changes in mammosphere cultures. Under control conditions the mammospheres were comprised of a boundary layer surrounding an interior lumenal space (FIG. 5a). Qualitatively, mammospheres treated with different serotonergic agents had markedly different structures. […] Those treated with PCPA were very distinctive because the boundary layer was consistently thin, and, there was a very high contrast between the dark boundary and light central space.
We performed a morphometric comparison of control and methysergide-treated mammospheres employing a Macintosh computer using the public domain NIH Image program (developed at the U.S. National Institutes of Health and available on the Internet at http://rsb.info.nih.gov/nih-image/). Threshold was adjusted to automatically outline the mammospheres, and the organoids were sorted into a frequency distribution based on particle sizes. The median size of the methysergide-treated mammospheres was about 40% larger than the control mammospheres (p<0.01; Mann-Whitney U-test; FIG. 5e).
(§1) Primary mouse mammary epithelium was prepared from nulliparous mice by enzymatic digestion and differential trypsinization, modifying the method of Imagawa (Pedchenko, V. K. & Imagawa, W. T. Mammogenic hormones differentially modulate keratinocyte growth factor (KGF)-induced proliferation and KGF receptor expression in cultured mouse mammary gland epithelium. Endocrinology 139,2519-2526 (1998)). Enriched epithelial cells (2×10^5 cells per well) were plated in basement membrane (Matrigel, 0.5 ml/well, BD Biosciences) reconstituted in a 12-well plate so that they formed mammospheres. They were pre-incubated for seven days, and treated with ovine PRL (1 μg/ml) for 2 days. The cell culture experiments were replicated 2-3 times in all cases.

[2] = tested on: TPH mRNA in primary mouse mammary epithelial organoids; test: TPH mRNA induction in primary cultures of mammary epithelial organoids; format: cell-based
Experimental: (b) TPH induction by milk stasis. Contralateral #3 glands were either open and suckled (+) or sealed with cyanoacrylate glue and unsuckled (−). RT-PCR was performed for TPH and glyceraldehyde-phosphate-dehydrogenase (GPDH), as shown.
(§2) Having established that mammary gland TPH expression was induced in vivo we studied TPH induction in primary cultures of mammary epithelial organoids. These organoids, sometimes referred to as “mammospheres,” secrete milk proteins, fluids and ions vectorially into a closed central lumen when cultured with lactogenic hormones. TPH increased slowly for at least 48 h following addition of PRL to the medium, and the optimum PRL dose was 1 μg/ml (approximately 20 nM) (FIG. 2a). […] First, the time course of TPH mRNA induction was much slower that other genes known to be directly regulated by PRL. Secondly, the in vitro induction was blocked by cycloheximide; and thirdly, the TPH promoter was not induced by PRL in reporter gene assays (unpublished results).
as §1

lactating dams (mice) = test: Milk yield of nursing dams given carbidopa injections (nursing-related weight loss as index of milk yield); format: in vivo
Experimental: Nursing dams were given 4 injections of carbidopa (1 mg/kg body weight) at 12 h intervals (or control vehicle). After the final injection the pups were removed from the dam for 4 h. At the end of 4 h the dams were weighed and reunited with the pups to nurse for 1 h. After the nursing interval the dams were again weighed and the nursing-related weight losses were analyzed as an index of milk yield (Table 1). The litters of lactating dams (mice) were adjusted to 8 pups on day 1 postpartum. Carbidopa (1 mg/kg in 45% hydroxypropyl-β-cyclodextrin) or control vehicle were injected at approximately 12 h intervals beginning in the evening of postpartum day 3. After 4 injections (morning of day 5) pups were separated from the dams for 4 h. At the end of separation interval, the dams were injected with oxytocin (0.2U) and both the dams and their litters and were weighed. The litters were reunited with the dams for a 1 h nursing interval. The weights of the dams were measured after nursing and the differences in the weights of the dams before and after nursing are reported as milk yield. The percent increases with carbidopa-treatment are shown for statistically significant variables. […] Numbers of animals in treatment groups are in parentheses.

TPH promoter = TPH promoter reporter gene assays; format: cell-based; conditions: unpublished results
Experimental: as §2

[3] = carbidopa 1 mg/kg, 4 injections

NCCc1c[nH]c2ccc(O)cc12 [5-HT, 5-hydroxytryptamine]
Effect on WAP gene expression [1]: suppressed
Mammosphere size vs controls (qualitative) (cultured mammospheres; 1 μg·ml−1, 7-day incubation, no quantitative morphometry): smaller than the controls
Mammosphere morphology (qualitative) (cultured mammospheres): either filled or collapsed, with no obvious lumen

CC[C@@H](CO)NC(=O)[C@@H]1C=C2c3cccc4c3c(cn4C)C[C@H]2N(C)C1 [methysergide]
Effect on WAP gene expression [1]: induced
Median size of mammospheres, increase vs control mammospheres (cultured mammospheres; 1 μg·ml−1, 7-day incubation, p<0.01, Mann-Whitney U-test): about 40%
Mammosphere morphology (qualitative) (cultured mammospheres): easily visible central lumena

C[C@@H]1C[C@@H]([C@H](O)CC2CC(=O)NC(=O)C2)C(=O)[C@@H](C)C1 [cycloheximide]
Effect on in vitro induction of TPH by PRL [2]: blocked

N[C@@H](Cc1ccc(Cl)cc1)C(=O)O (racemic) [PCPA, p-chloro-phenylalanine]
Mammosphere morphology (qualitative) (cultured mammospheres): easily visible central lumena

C[C@@](Cc1ccc(O)c(O)c1)(NN)C(=O)O [Carbidopa, S-(−)-α-hydrazino-3,4-dihydroxy-2-methylbenzenepropanoic acid]
Percent increase in litter weight relative to dam weight with carbidopa treatment vs vehicle control (lactating dams (mice); [3]): >8.1%
Percent increase in milk yield with carbidopa treatment vs vehicle control (lactating dams (mice); [3]): >16.7%
Milk Yield (difference in dam weight before and after 1 h nursing) (lactating dams (mice); carbidopa 1 mg/kg, 4 injections at 12 h intervals, 4 h separation, 1 h nursing, mean ± s.e.m.): 2.1 ± 0.1 g
Percent increase in litter (pup) weight with carbidopa treatment vs vehicle control (lactating dams (mice); carbidopa 1 mg/kg, 4 injections, absolute basis): >11.6%
Litter/Dam (litter weight relative to dam weight) (lactating dams (mice); carbidopa 1 mg/kg, 4 injections, mean ± s.e.m.): 0.93 ± 0.03
Litter Weight (lactating dams (mice); litters of 8 pups, carbidopa 1 mg/kg to dam, 4 injections, mean ± s.e.m.): 36.5 ± 1.8 g

B1: PRL: prolactin, lactogenic hormone; ovine PRL added to the mammosphere cultures (protein, UniProt P01240 31-229, looked up)
Prolactin: TPVCPNGPGNCQVSLRDLFDRAVMVSHYIHNLSSEMFNEFDKRYAQGKGFITMALNSCHTSSLPTPEDKEQAQQTHHEVLMSLILGLLRSWNDPLYHLVTEVRGMKGVPDAILSRAIEIEEENKRLLEGMEMIFGQVIPGAKETEPYPVWSGLPSLQTKDEDARHSAFYNLLHCLRRDSSKIDTYLKLLNCRIIYNNNC
Optimum dose for TPH mRNA induction [2]: 1 µg/mL
Optimum dose for TPH mRNA induction (molar) [2]: approximately 20 nM
Induction of the TPH promoter (TPH promoter): not induced
